Article PMC12794188, “Maternal–Fetal Transfer and Toxicokinetics of 2,2′,5,5′-Tetrachlorobiphenyl, [^14C]-PCB52, Following Intratracheal Administration” (Chemical Research in Toxicology, 2025)

Assay: Toxicokinetics and tissue disposition of total [14C] radioactivity after a single intratracheal dose of [14C]-PCB52 (0.157 mg/kg) in pregnant rats at GD 11±1
Type: in vivo, Sprague–Dawley rats
Experimental: Female Sprague–Dawley rats (8 weeks old) weighing 237–269.7 g (mean = 247.5 g) (Envigo RMS, LLC, Indianapolis, IN) were used for this study. All animal experiments were performed following the protocols evaluated and approved by the University of Iowa Institutional Animal Care and Use Committee (approval number 3091097). After arrival, the animals were acclimated for 7 days. The animals were housed in a light and temperature-controlled environment with ad libitum access to food and water during quarantine and throughout the study. Timed pregnancy was achieved by harem mating. , Briefly, one male and two female rats were placed together in the evening and checked for vaginal plug the following day. If vaginal plug was present, the male was removed from the breeding cage, and the gestation day 0 (GD 0), 0-day post coitum was assigned. Pregnancies were confirmed by ultrasound scan at GD 9. The dams were exposed at GD 11 (±1 day) to capture the period of early organogenesis and hormonal function, which falls within week 3 of human embryonic development. ,− On the day of the experiment, pregnant rats were intratracheally administered an average of 40 μg (range, 35–45 μg) of [^14C]-PCB52 in 100 μL of exposure solution. Although the dose used in this study exceeded the tolerable daily intake (TDI) of PCBs for healthy individuals, which is 1.6 μg per day for an individual weighing 80 kg, the use of higher acute doses has been established in toxicological studies intended for risk assessment. The intratracheal instillation method was chosen for administering [^14C]-PCB52 to represent inhalation exposures, capture exhaled concentration, and efficiently utilize the limited availability of the cost-intensive radiolabeled PCB52. , Although inhalation exposure would better represent real-world exposures to airborne LC-PCBs, it would not allow us to accurately measure the amount of PCB52 exhaled into the air after exposure and is experimentally infeasible. […] All intratracheal instillations were done under light anesthesia, achieved using a 4% isoflurane concentration via a Fortec vaporizer (Cyprane, Keighley, UK). The animals recovered from anesthesia within 1 min. Subsequently, the animals were housed within a cylindrical glass chamber measuring 2 L in volume, equipped with glass drainage mechanisms to facilitate urine collection and a metallic screen to segregate urine from feces (as in Figure S1). Air was drawn from the chamber at 6.0 L/min through a cartridge containing the XAD-2 polymeric resin to capture any exhaled [^14C]-PCB52. For periods longer than 24 h postexposure, exposed dams were placed in a metabolic cage, which was fitted with a cartridge containing XAD-2 to capture exhaled [^14C]-PCB52 as in other end points.
Maternal blood, urine, and feces samples were collected immediately before and at 0.21, 1.67, 12, 24, 48, and 96 h after lung dosing. The exposed dams were euthanized using 4% isoflurane, followed by cervical dislocation and exsanguination via a cardiac puncture. Euthanasia was consistently performed during the light cycle. Dams’ fur was wiped and analyzed for radioactivity. Using the retro-orbital blood collection method, 0.5–1.5 mL ([…] of an exposed pregnant rat’s body weight) of blood sample was collected from each of the dams until the individual dams were necropsied for whole-body tissue harvesting. At the end of the exposure period, the chamber’s interior walls were rinsed separately with water and acetone/hexane (25 – 45 mL) and wiped to measure residues. From the collected whole blood samples, 100 μL were aliquoted into three vials each, and the remaining blood was allowed to clot at room temperature before being centrifuged to yield serum. The placentas, developing fetuses, and whole-body tissue samples were harvested immediately before exposure and at 0.21, 1.67, 12, 24, and 96 h postexposure. […]

[1] = Salivary gland, 0.21 h post-exposure
[2] = Salivary gland, 1.67 h post-exposure
[3] = Salivary gland, 12 h post-exposure
[4] = Salivary gland, 24 h post-exposure
[5] = Salivary gland, 96 h post-exposure
[6] = mammary gland/MS (maternal serum)
[7] = ratios of toxicokinetic parameters

SMILES: Clc1ccc(Cl)c(-c2cc(Cl)ccc2Cl)c1 [PCB52, 2,2′,5,5′-Tetrachlorobiphenyl]
- Percent tissue distribution (Ovary, 0.21 h post-exposure): 0.20%
- Conc. per mg wet tissue (Ovary, 1.67 h post-exposure): 7.08 dpm/mg
- Percent tissue distribution (Ovary, 1.67 h post-exposure): 0.08%
- Conc. per mg wet tissue (Ovary, 12 h post-exposure): 1.61 dpm/mg
- Percent tissue distribution (Ovary, 12 h post-exposure): 0.02%
- Conc. per mg wet tissue (Ovary, 24 h post-exposure): 5.24 dpm/mg
- Percent tissue distribution (Ovary, 24 h post-exposure): 0.05%
- Percent tissue distribution (Ovary, 96 h post-exposure): 0.02%
- AUC_%Extrap (Pancreas): 37.26%
- Terminal elimination half-life (t1/2) (Pancreas): 67.74 h
- Conc. per mg wet tissue (Pancreas, 0.21 h post-exposure): 14.81 dpm/mg
- Percent tissue distribution (Pancreas, 0.21 h post-exposure): 0.91%
- Conc. per mg wet tissue (Pancreas, 1.67 h post-exposure): 4.88 dpm/mg
- Percent tissue distribution (Pancreas, 1.67 h post-exposure): 0.39%
- Conc. per mg wet tissue (Pancreas, 12 h post-exposure): 1.83 dpm/mg
- Percent tissue distribution (Pancreas, 12 h post-exposure): 0.07%
- Conc. per mg wet tissue (Pancreas, 24 h post-exposure): 5.17 dpm/mg
- Percent tissue distribution (Pancreas, 24 h post-exposure): 0.30%
- Conc. per mg wet tissue (Pancreas, 96 h post-exposure): 38.84 dpm/mg
- Percent tissue distribution (Pancreas, 96 h post-exposure): 0.14%
- Tmax (Pituitary gland): 96 h
- AUC_%Extrap (Rectal Amp.): 62.17%
- Terminal elimination half-life (t1/2) (Rectal Amp.): 133.61 h
- AUC_%Extrap (Salivary gland): 44.09%
- Terminal elimination half-life (t1/2) (Salivary gland): 84.60 h
- Tmax (Salivary gland): ≤ 0.21 h
- Conc. per mg wet tissue [1]: 8.48 dpm/mg
- Percent tissue distribution [1]: 0.39%
- Conc. per mg wet tissue [2]: 2.93 dpm/mg
- Percent tissue distribution [2]: 0.18%
- Conc. per mg wet tissue [3]: 1.44 dpm/mg
- Percent tissue distribution [3]: 0.04%
- Conc. per mg wet tissue [4]: 2.06 dpm/mg
- Percent tissue distribution [4]: 0.06%
- Conc. per mg wet tissue [5]: 0.34 dpm/mg
- Percent tissue distribution [5]: 0.04%
- AUC_%Extrap (Skin): 30.85%
- Terminal elimination half-life (t1/2) (Skin): 58.90 h
- AUC_%Extrap (Small Intestine): 25.66%
- Terminal elimination half-life (t1/2) (Small Intestine): 47.33 h
- AUC_%Extrap (Spleen): 35.06%
- Terminal elimination half-life (t1/2) (Spleen): 55.79 h
- Conc. per mg wet tissue (Spleen, 0.21 h post-exposure): 13.12 dpm/mg
- Percent tissue distribution (Spleen, 0.21 h post-exposure): 0.29%
- Conc. per mg wet tissue (Spleen, 1.67 h post-exposure): 3.05 dpm/mg
- Percent tissue distribution (Spleen, 1.67 h post-exposure): 0.12%
- Conc. per mg wet tissue (Spleen, 12 h post-exposure): 2.62 dpm/mg
- Percent tissue distribution (Spleen, 12 h post-exposure): 0.04%
- Conc. per mg wet tissue (Spleen, 24 h post-exposure): 5.75 dpm/mg
- Percent tissue distribution (Spleen, 24 h post-exposure): 0.07%
- Conc. per mg wet tissue (Spleen, 96 h post-exposure): 0.87 dpm/mg
- Percent tissue distribution (Spleen, 96 h post-exposure): 0.03%
- AUC_%Extrap (Stomach): 15.03%
- Terminal elimination half-life (t1/2) (Stomach): 32.02 h
- Tmax (Stomach): ≤ 0.21 h
- Conc. per mg wet tissue (Stomach, 0.21 h post-exposure): 36.55 dpm/mg
- Percent tissue distribution (Stomach, 0.21 h post-exposure): 0.71%
- Conc. per mg wet tissue (Stomach, 1.67 h post-exposure): 17.01 dpm/mg
- Percent tissue distribution (Stomach, 1.67 h post-exposure): 0.23%
- Conc. per mg wet tissue (Stomach, 12 h post-exposure): 4.80 dpm/mg
- Percent tissue distribution (Stomach, 12 h post-exposure): 0.33%
- Conc. per mg wet tissue (Stomach, 24 h post-exposure): 6.56 dpm/mg
- Percent tissue distribution (Stomach, 24 h post-exposure): 0.44%
- Conc. per mg wet tissue (Stomach, 96 h post-exposure): 2.28 dpm/mg
- Percent tissue distribution (Stomach, 96 h post-exposure): 0.10%
- AUC_%Extrap (Thymus): 25.14%
- Terminal elimination half-life (t1/2) (Thymus): 53.40 h
- AUC_%Extrap (Thyroid): 12.95%
- Terminal elimination half-life (t1/2) (Thyroid): 37.74 h
- Conc. per mg wet tissue (Tongue, 0.21 h post-exposure): 0.16 dpm/mg
- Percent tissue distribution (Tongue, 0.21 h post-exposure): 0.67%
- Conc. per mg wet tissue (Tongue, 1.67 h post-exposure): 4.42 dpm/mg
- Percent tissue distribution (Tongue, 1.67 h post-exposure): 0.0003%
- Conc. per mg wet tissue (Tongue, 12 h post-exposure): 1.08 dpm/mg
- Percent tissue distribution (Tongue, 12 h post-exposure): 0.06%
- Conc. per mg wet tissue (Tongue, 24 h post-exposure): 1.03 dpm/mg
- Percent tissue distribution (Tongue, 24 h post-exposure): 0.05%
- Conc. per mg wet tissue (Tongue, 96 h post-exposure): 0.16 dpm/mg
- Percent tissue distribution (Tongue, 96 h post-exposure): 0.01%
- Conc. per mg wet tissue (Trachea, 0.21 h post-exposure): 142.06 dpm/mg
- Percent tissue distribution (Trachea, 0.21 h post-exposure): 0.83%
- Conc. per mg wet tissue (Trachea, 1.67 h post-exposure): 40.98 dpm/mg
- Percent tissue distribution (Trachea, 1.67 h post-exposure): 0.24%
- Conc. per mg wet tissue (Trachea, 12 h post-exposure): 13.20 dpm/mg
- Percent tissue distribution (Trachea, 12 h post-exposure): 0.08%
- Conc. per mg wet tissue (Trachea, 24 h post-exposure): 6.29 dpm/mg
- Percent tissue distribution (Trachea, 24 h post-exposure): 0.04%
- Conc. per mg wet tissue (Trachea, 96 h post-exposure): 1.03 dpm/mg
- Percent tissue distribution (Trachea, 96 h post-exposure): 0.01%
- AUC_%Extrap (Uterus): 17.37%
- Terminal elimination half-life (t1/2) (Uterus): 34.85 h
- Conc. per mg wet tissue (Uterus, 0.21 h post-exposure): 0.37 dpm/mg
- Percent tissue distribution (Uterus, 0.21 h post-exposure): 0.21%
- Conc. per mg wet tissue (Uterus, 1.67 h post-exposure): 2.43 dpm/mg
- Percent tissue distribution (Uterus, 1.67 h post-exposure): 0.11%
- Conc. per mg wet tissue (Uterus, 12 h post-exposure): 0.93 dpm/mg
- Percent tissue distribution (Uterus, 12 h post-exposure): 0.06%
- Conc. per mg wet tissue (Uterus, 24 h post-exposure): 2.20 dpm/mg
- Percent tissue distribution (Uterus, 24 h post-exposure): 0.16%
- Conc. per mg wet tissue (Uterus, 96 h post-exposure): 0.37 dpm/mg
- Percent tissue distribution (Uterus, 96 h post-exposure): 0.13%
- AUC_% extrap (amniotic fluid): 7.8%
- AUC_%Extrap (amniotic fluid): 8.11%
- Terminal elimination half-life (t1/2) (amniotic fluid): 26.38 h
- maternal serum exposure ratio (amniotic fluid): 0.05
- AUC0–96h ratio (brain/MS (maternal serum)): 0.672
- C max ratio (brain/MS (maternal serum)): 0.598
- AUC0–96h ratio (brain/thyroid): 0.276
- C max ratio (brain/thyroid): 0.298
- concentration in brown adipose relative to white adipose (brown vs white adipose): five times higher
- biological half-life (dams): less than 2 days
- biological half-life (developing fetuses): less than 2 days
- AUC0‑∞ ratio (fetus/AF (amniotic fluid)): 5.472
- AUC0–96h ratio (fetus/AF (amniotic fluid)): 5.405
- C max ratio (fetus/AF (amniotic fluid)): 5.767
- AUC0–96h ratio (fetus/MS (maternal serum)): 0.100
- C max ratio (fetus/MS (maternal serum)): 0.135
- AUC0‑∞ ratio (fetus/mammary gland): 46.45
- AUC0–96h ratio (fetus/mammary gland): 43.42
- C max ratio (fetus/mammary gland): 11.47
- AUC0‑∞ ratio (fetus/ovary): 0.078
- AUC0–96h ratio (fetus/ovary): 0.094
- C max ratio (fetus/ovary): 0.163
- AUC0–96h ratio (fetus/pituitary): 0.026
- C max ratio (fetus/pituitary): 0.052
- AUC0‑∞ ratio (fetus/placenta): 0.569
- AUC0–96h ratio (fetus/placenta): 0.538
- C max ratio (fetus/placenta): 0.778
- AUC0‑∞ ratio (fetus/thymus): 0.125
- AUC0–96h ratio (fetus/thymus): 0.152
- C max ratio (fetus/thymus): 0.314
- AUC0‑∞ ratio (fetus/thyroid): 8.805
- AUC0–96h ratio (fetus/thyroid): 8.445
- C max ratio (fetus/thyroid): 8.150
- AUC0‑∞ ratio [6]: 12.59
- AUC0–96h ratio [6]: 12.52
- C max ratio [6]: 2.822
- AUC_% extrap (maternal serum): 14.2%
- blood-to-plasma ratio (observed experimental): 0.53
- AUC0–96h ratio (ovary/MS (maternal serum)): 3.043
- C max ratio (ovary/MS (maternal serum)): 1.512
- AUC0–96h ratio (pituitary/MS (maternal serum)): 11.289
- C max ratio (pituitary/MS (maternal serum)): 4.741
- AUC0–96h ratio (pituitary/thymus): 5.933
- C max ratio (pituitary/thymus): 4.114
- AUC_% extrap (placenta): 4.1%
- AUC_%Extrap (placenta): 4.14%
- Terminal elimination half-life (t1/2) (placenta): 21.11 h
- maternal serum exposure ratio (placenta): 0.5
- AUC0‑∞ ratio (placenta/MS (maternal serum)): 0.477
- AUC0–96h ratio (placenta/MS (maternal serum)): 0.536
- C max ratio (placenta/MS (maternal serum)): 0.316
- time at which brown/white adipose concentration ratio reached unity (postexposure): 24 h
- amniotic fluid-to-fetus ratio [7]: < 1
- fetus-to-amniotic fluid ratio [7]: > 5
- AUC0‑∞ ratio (thymus/MS (maternal serum)): 2.169
- AUC0–96h ratio (thymus/MS (maternal serum)): 1.903
- C max ratio (thymus/MS (maternal serum)): 1.152
- AUC0‑∞ ratio (thyroid/MS (maternal serum)): 2.387
- AUC0–96h ratio (thyroid/MS (maternal serum)): 2.435
- C max ratio (thyroid/MS (maternal serum)): 2.005
- AUC0‑∞ ratio (uterus/MS (maternal serum)): 0.917
- AUC0–96h ratio (uterus/MS (maternal serum)): 0.888
- C max ratio (uterus/MS (maternal serum)): 0.296
- AUC0‑∞ ratio (uterus/ovary): 0.262
- AUC0–96h ratio (uterus/ovary): 0.292
- C max ratio (uterus/ovary): 0.196
